Assays:
Assay in all cases: relative viability (nuclei count vs DMSO), 5 days (fraction); higher = more cells survive
A-427 = test system: A-427
How it was run: (§1)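 Nuclei were stained with Hoechst during a one-step fixation (final 0.05% Triton X-100, 1% formaldehyde, 1 ug/ml Hoechst) carried out 5 days after dosing, then counted on 4× images. The cells, lung cancer lines in 1536-well plates, had been dosed by pin tool the day after seeding with one drug alone or a fixed anchor-drug dose plus five library-drug doses (not always all listed) in √10 steps. Relative viability is the nuclei count in treated wells divided by that in vehicle wells, and each value is the median of duplicate plates.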

CAL-12T = test system: CAL-12T
How it was run: as §1

COR-L 105 = test system: COR-L 105
How it was run: as §1

EMC-BAC-2 = test system: EMC-BAC-2
How it was run: as §1

HARA = test system: HARA
How it was run: as §1

HCC-366 = test system: HCC-366
How it was run: as §1

HCC-827 = test system: HCC-827
How it was run: as §1

HOP-62 = test system: HOP-62
How it was run: as §1

NCI-H1395 = test system: NCI-H1395
How it was run: as §1

NCI-H1437 = test system: NCI-H1437
How it was run: as §1

NCI-H1755 = test system: NCI-H1755
How it was run: as §1

NCI-H1792 = test system: NCI-H1792
How it was run: as §1

NCI-H1915 = test system: NCI-H1915
How it was run: as §1

NCI-H2009 = test system: NCI-H2009
How it was run: as §1

NCI-H2228 = test system: NCI-H2228
How it was run: as §1

NCI-H23 = test system: NCI-H23
How it was run: as §1

NCI-H460 = test system: NCI-H460
How it was run: as §1

NCI-H727 = test system: NCI-H727
How it was run: as §1

SK-LU-1 = test system: SK-LU-1
How it was run: as §1

SW 1573 = test system: SW 1573
How it was run: as §1

COc1cc2nccc(Oc3ccc(NC(=O)Nc4cc(C)on4)c(Cl)c3)c2cc1OC [Tivozanib] + CC1(C)CCC(c2ccc(Cl)cc2)=C(CN2CCN(c3ccc(C(=O)NS(=O)(=O)c4ccc(N[C@H](CCN5CCOCC5)CSc5ccccc5)c(S(=O)(=O)C(F)(F)F)c4)cc3)CC2)C1 [Navitoclax] (partner 0.5 µM)
relative viability (A-427; first compound 0.005 µM): 0.924 | relative viability (A-427; first compound 0.01581 µM): 0.989 | relative viability (A-427; first compound 0.05 µM): 0.988 | relative viability (A-427; first compound 0.1581 µM): 0.737 | relative viability (A-427; first compound 0.5 µM): 1.03 | relative viability (CAL-12T; first compound 0.005 µM): 1.11 | relative viability (CAL-12T; first compound 0.01581 µM): 1.19 | relative viability (CAL-12T; first compound 0.05 µM): 1.18 | relative viability (CAL-12T; first compound 0.5 µM): 0.94 | relative viability (COR-L 105; first compound 0.01581 µM): 0.835 | relative viability (COR-L 105; first compound 0.05 µM): 0.829 | relative viability (COR-L 105; first compound 0.1581 µM): 1.17 | relative viability (COR-L 105; first compound 0.5 µM): 0.743 | relative viability (EMC-BAC-2; first compound 0.005 µM): 1.27 | relative viability (EMC-BAC-2; first compound 0.01581 µM): 1.11 | relative viability (EMC-BAC-2; first compound 0.05 µM): 1.21 | relative viability (EMC-BAC-2; first compound 0.1581 µM): 1.14 | relative viability (EMC-BAC-2; first compound 0.5 µM): 1.24 | relative viability (HARA; first compound 0.005 µM): 1.11 | relative viability (HARA; first compound 0.01581 µM): 1.04 | relative viability (HARA; first compound 0.05 µM): 1.19 | relative viability (HARA; first compound 0.1581 µM): 1.19 | relative viability (HARA; first compound 0.5 µM): 1.15 | relative viability (HCC-366; first compound 0.005 µM): 1.05 | relative viability (HCC-366; first compound 0.01581 µM): 1.05 | relative viability (HCC-366; first compound 0.05 µM): 0.947 | relative viability (HCC-366; first compound 0.1581 µM): 1.01 | relative viability (HCC-366; first compound 0.5 µM): 1.08 | relative viability (HCC-827; first compound 0.005 µM): 1.01 | relative viability (HCC-827; first compound 0.01581 µM): 1.03 | relative viability (HCC-827; first compound 0.05 µM): 1.02 | relative viability (HCC-827; first compound 0.1581 µM): 1.05 | relative viability (HCC-827; first compound 0.5 µM): 1.03 | relative viability (HOP-62; first compound 0.005 µM): 0.996 | relative viability (HOP-62; first compound 0.01581 µM): 1.08 | relative viability (HOP-62; first compound 0.05 µM): 1.07 | relative viability (HOP-62; first compound 0.1581 µM): 1.12 | relative viability (HOP-62; first compound 0.5 µM): 0.844 | relative viability (NCI-H1395; first compound 0.005 µM): 1.14 | relative viability (NCI-H1395; first compound 0.01581 µM): 1.08 | relative viability (NCI-H1395; first compound 0.05 µM): 1.08 | relative viability (NCI-H1395; first compound 0.1581 µM): 1.24 | relative viability (NCI-H1395; first compound 0.5 µM): 0.945 | relative viability (NCI-H1437; first compound 0.005 µM): 1.06 | relative viability (NCI-H1437; first compound 0.01581 µM): 1.12 | relative viability (NCI-H1437; first compound 0.05 µM): 1.07 | relative viability (NCI-H1437; first compound 0.1581 µM): 1.02 | relative viability (NCI-H1437; first compound 0.5 µM): 1.02 | relative viability (NCI-H1755; first compound 0.005 µM): 0.953 | relative viability (NCI-H1755; first compound 0.01581 µM): 0.949 | relative viability (NCI-H1755; first compound 0.05 µM): 1.01 | relative viability (NCI-H1755; first compound 0.1581 µM): 0.932 | relative viability (NCI-H1755; first compound 0.5 µM): 0.916 | relative viability (NCI-H1792; first compound 0.005 µM): 0.657 | relative viability (NCI-H1792; first compound 0.01581 µM): 0.638 | relative viability (NCI-H1792; first compound 0.05 µM): 0.657 | relative viability (NCI-H1792; first compound 0.1581 µM): 0.505 | relative viability (NCI-H1792; first compound 0.5 µM): 0.849 | relative viability (NCI-H1915; first compound 0.005 µM): 0.756 | relative viability (NCI-H1915; first compound 0.01581 µM): 0.765 | relative viability (NCI-H1915; first compound 0.05 µM): 0.806 | relative viability (NCI-H1915; first compound 0.1581 µM): 0.838 | relative viability (NCI-H1915; first compound 0.5 µM): 0.771 | relative viability (NCI-H2009; first compound 0.005 µM): 1.11 | relative viability (NCI-H2009; first compound 0.01581 µM): 1.16 | relative viability (NCI-H2009; first compound 0.05 µM): 1.19 | relative viability (NCI-H2009; first compound 0.1581 µM): 1.24 | relative viability (NCI-H2009; first compound 0.5 µM): 1.14 | relative viability (NCI-H2228; first compound 0.005 µM): 1.03 | relative viability (NCI-H2228; first compound 0.01581 µM): 0.891 | relative viability (NCI-H2228; first compound 0.05 µM): 0.754 | relative viability (NCI-H2228; first compound 0.1581 µM): 0.9 | relative viability (NCI-H2228; first compound 0.5 µM): 1.24 | relative viability (NCI-H23; first compound 0.005 µM): 0.753 | relative viability (NCI-H23; first compound 0.01581 µM): 0.718 | relative viability (NCI-H23; first compound 0.05 µM): 0.92 | relative viability (NCI-H23; first compound 0.1581 µM): 0.652 | relative viability (NCI-H23; first compound 0.5 µM): 0.938 | relative viability (NCI-H460; first compound 0.005 µM): 1.09 | relative viability (NCI-H460; first compound 0.01581 µM): 1.24 | relative viability (NCI-H460; first compound 0.05 µM): 1.13 | relative viability (NCI-H460; first compound 0.1581 µM): 1.17 | relative viability (NCI-H460; first compound 0.5 µM): 1.1 | relative viability (NCI-H727; first compound 0.005 µM): 0.343 | relative viability (NCI-H727; first compound 0.01581 µM): 0.49 | relative viability (NCI-H727; first compound 0.05 µM): 0.412 | relative viability (NCI-H727; first compound 0.5 µM): 0.551 | relative viability (SK-LU-1; first compound 0.005 µM): 0.837 | relative viability (SK-LU-1; first compound 0.01581 µM): 0.862 | relative viability (SK-LU-1; first compound 0.05 µM): 1.1 | relative viability (SK-LU-1; first compound 0.1581 µM): 0.666 | relative viability (SK-LU-1; first compound 0.5 µM): 0.806 | relative viability (SW 1573; first compound 0.005 µM): 0.92 | relative viability (SW 1573; first compound 0.01581 µM): 0.911 | relative viability (SW 1573; first compound 0.05 µM): 0.949 | relative viability (SW 1573; first compound 0.1581 µM): 0.777 | relative viability (SW 1573; first compound 0.5 µM): 0.983
